Tested on: PANC-1 complex spheroid growth, percent test/control
Assay: Anticancer human tumor PANC-1 cell line growth inhibition [Asc];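 also: spheroids exposed to agents for 7 days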;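 as to viability, T/C: percent viability relative to DMSO vehicle wells taken as 100%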
Conditions: for IC50: curve of first compound; for viability, T/C: stronger effect = lower value
Outline: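 Complex solid-tumor spheroids incorporating human endothelial and mesenchymal stem cells received single agents or combinations over half-log dilution ranges anchored to clinical Cmax.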

[1] = second compound 0.0316 µM, first compound 0.00316 µM
[2] = second compound 0.0316 µM, first compound 0.01 µM
[3] = second compound 0.0316 µM, first compound 0.0316 µM
[4] = second compound 0.0316 µM, first compound 0.1 µM
[5] = second compound 0.1 µM, first compound 0.00316 µM
[6] = second compound 0.1 µM, first compound 0.01 µM
[7] = second compound 0.1 µM, first compound 0.0316 µM
[8] = second compound 0.1 µM, first compound 0.1 µM
[9] = second compound 0.316 µM, first compound 0.00316 µM
[10] = second compound 0.316 µM, first compound 0.01 µM
[11] = second compound 0.316 µM, first compound 0.0316 µM
[12] = second compound 0.316 µM, first compound 0.1 µM
[13] = second compound 1 µM, first compound 0.00316 µM
[14] = second compound 1 µM, first compound 0.01 µM
[15] = second compound 1 µM, first compound 0.0316 µM
[16] = second compound 1 µM, first compound 0.1 µM
[17] = second compound 3.16 µM, first compound 0.00316 µM
[18] = second compound 3.16 µM, first compound 0.01 µM
[19] = second compound 3.16 µM, first compound 0.0316 µM
[20] = second compound 3.16 µM, first compound 0.1 µM
[21] = second compound 10 µM, first compound 0.00316 µM
[22] = second compound 10 µM, first compound 0.01 µM
[23] = second compound 10 µM, first compound 0.0316 µM
[24] = second compound 10 µM, first compound 0.1 µM

Compound COc1c(OCCCN2CCOCC2)ccc2c3n(c(=NC(=O)c4cnc(N)nc4)nc12)CCN3 + Cc1c(S(C)(=O)=O)c(-c2cc(F)cc(N3CCN(c4ccc(NS(=O)(=O)c5ccc(NC(CCN6CCC(C(=O)OCCCP(=O)(O)O)CC6)CSc6ccccc6)c(S(=O)(=O)C(F)(F)F)c5)cc4)CC3)c2)c(-c2ccc(Cl)cc2)n1C(C)C has an IC50 (second compound 0.0316 µM) of 536 nM, an IC50 (second compound 0.1 µM) of 420 nM and an IC50 (second compound 0.316 µM) of 314 nM. It also gave an IC50 (second compound 1 µM) of 304 nM, an IC50 (second compound 3.16 µM) of 282 nM and an IC50 (second compound 10 µM) of 264 nM. It also gave a viability, T/C [1] of 103%, a viability, T/C [2] of 98.5% and a viability, T/C [3] of 95.7%. For the same compound, the viability, T/C [4] was 73.7%, the viability, T/C (second compound 0.0316 µM, first compound 0.316 µM) was 69.4% and the viability, T/C (second compound 0.0316 µM, first compound 1 µM) was 32.6%. The viability, T/C [5] was 98%, the viability, T/C [6] was 105% and the viability, T/C [7] was 94.7%. It also gave a viability, T/C [8] of 72.8%, a viability, T/C (second compound 0.1 µM, first compound 0.316 µM) of 60.2% and a viability, T/C (second compound 0.1 µM, first compound 1 µM) of 28.5%. The viability, T/C [9] was 107%, the viability, T/C [10] was 106% and the viability, T/C [11] was 91.1%. For the same compound, the viability, T/C [12] was 58.2%, the viability, T/C (second compound 0.316 µM, first compound 0.316 µM) was 59% and the viability, T/C (second compound 0.316 µM, first compound 1 µM) was 25.7%. It also gave a viability, T/C [13] of 104%, a viability, T/C [14] of 97.8% and a viability, T/C [15] of 99.8%. For the same compound, the viability, T/C [16] was 67.4%, the viability, T/C (second compound 1 µM, first compound 0.316 µM) was 52.9% and the viability, T/C (second compound 1 µM, first compound 1 µM) was 24.1%. It also gave a viability, T/C [17] of 122%, a viability, T/C [18] of 106% and a viability, T/C [19] of 86.8%. The viability, T/C [20] was 65.8%, the viability, T/C (second compound 3.16 µM, first compound 0.316 µM) was 53.8% and the viability, T/C (second compound 3.16 µM, first compound 1 µM) was 23.9%. For the same compound, the viability, T/C [21] was 171%, the viability, T/C [22] was 198% and the viability, T/C [23] was 131%. It also gave a viability, T/C [24] of 78.1%, a viability, T/C (second compound 10 µM, first compound 0.316 µM) of 52.5% and a viability, T/C (second compound 10 µM, first compound 1 µM) of 31.7%.
In the case of NC(=O)C(=Cn1cnc(-c2cc(C(F)(F)F)cc(C(F)(F)F)c2)n1)c1cncnc1 + Cc1c(S(C)(=O)=O)c(-c2cc(F)cc(N3CCN(c4ccc(NS(=O)(=O)c5ccc(NC(CCN6CCC(C(=O)OCCCP(=O)(O)O)CC6)CSc6ccccc6)c(S(=O)(=O)C(F)(F)F)c5)cc4)CC3)c2)c(-c2ccc(Cl)cc2)n1C(C)C, the IC50 (second compound 0.0316 µM) is reported as > 300 nM, the IC50 (second compound 0.1 µM) is reported as > 300 nM and the IC50 (second compound 0.316 µM) is reported as > 300 nM. The IC50 (second compound 1 µM) was > 300 nM, the IC50 (second compound 3.16 µM) was > 300 nM and the IC50 (second compound 10 µM) was > 300 nM. The viability, T/C (second compound 0.0316 µM, first compound 0.000949 µM) was 103%, the viability, T/C (second compound 0.0316 µM, first compound 0.003 µM) was 90.5% and the viability, T/C (second compound 0.0316 µM, first compound 0.00949 µM) was 93.7%. It also gave a viability, T/C (second compound 0.0316 µM, first compound 0.03 µM) of 91%, a viability, T/C (second compound 0.0316 µM, first compound 0.0949 µM) of 118% and a viability, T/C (second compound 0.0316 µM, first compound 0.3 µM) of 90.8%. It also gave a viability, T/C (second compound 0.1 µM, first compound 0.000949 µM) of 96.3%, a viability, T/C (second compound 0.1 µM, first compound 0.003 µM) of 102% and a viability, T/C (second compound 0.1 µM, first compound 0.00949 µM) of 97.4%. It also gave a viability, T/C (second compound 0.1 µM, first compound 0.03 µM) of 102%, a viability, T/C (second compound 0.1 µM, first compound 0.0949 µM) of 121% and a viability, T/C (second compound 0.1 µM, first compound 0.3 µM) of 84.3%. The viability, T/C (second compound 0.316 µM, first compound 0.000949 µM) was 105%, the viability, T/C (second compound 0.316 µM, first compound 0.003 µM) was 93.6% and the viability, T/C (second compound 0.316 µM, first compound 0.00949 µM) was 101%. It also gave a viability, T/C (second compound 0.316 µM, first compound 0.03 µM) of 98.5%, a viability, T/C (second compound 0.316 µM, first compound 0.0949 µM) of 122% and a viability, T/C (second compound 0.316 µM, first compound 0.3 µM) of 99.9%. For the same compound, the viability, T/C (second compound 1 µM, first compound 0.000949 µM) was 105%, the viability, T/C (second compound 1 µM, first compound 0.003 µM) was 101% and the viability, T/C (second compound 1 µM, first compound 0.00949 µM) was 97.7%. For the same compound, the viability, T/C (second compound 1 µM, first compound 0.03 µM) was 94%, the viability, T/C (second compound 1 µM, first compound 0.0949 µM) was 130% and the viability, T/C (second compound 1 µM, first compound 0.3 µM) was 84.5%. For the same compound, the viability, T/C (second compound 3.16 µM, first compound 0.000949 µM) was 108%, the viability, T/C (second compound 3.16 µM, first compound 0.003 µM) was 94.5% and the viability, T/C (second compound 3.16 µM, first compound 0.00949 µM) was 98.1%. For the same compound, the viability, T/C (second compound 3.16 µM, first compound 0.03 µM) was 104%, the viability, T/C (second compound 3.16 µM, first compound 0.0949 µM) was 120% and the viability, T/C (second compound 3.16 µM, first compound 0.3 µM) was 79.3%. It also gave a viability, T/C (second compound 10 µM, first compound 0.000949 µM) of 152%, a viability, T/C (second compound 10 µM, first compound 0.003 µM) of 192% and a viability, T/C (second compound 10 µM, first compound 0.00949 µM) of 181%. The viability, T/C (second compound 10 µM, first compound 0.03 µM) was 205%, the viability, T/C (second compound 10 µM, first compound 0.0949 µM) was 196% and the viability, T/C (second compound 10 µM, first compound 0.3 µM) was 86.7%.
NC1CCC(NC2CC2c2ccccc2)CC1 (stereo unspecified) + Cc1c(S(C)(=O)=O)c(-c2cc(F)cc(N3CCN(c4ccc(NS(=O)(=O)c5ccc(NC(CCN6CCC(C(=O)OCCCP(=O)(O)O)CC6)CSc6ccccc6)c(S(=O)(=O)C(F)(F)F)c5)cc4)CC3)c2)c(-c2ccc(Cl)cc2)n1C(C)C was tested, and the IC50 (second compound 0.0316 µM) was > 100 nM, the IC50 (second compound 0.1 µM) was > 100 nM and the IC50 (second compound 0.316 µM) was > 100 nM. The IC50 (second compound 1 µM) was > 100 nM, the IC50 (second compound 3.16 µM) was > 100 nM and the IC50 (second compound 10 µM) was > 100 nM. It also gave a viability, T/C (second compound 0.0316 µM, first compound 0.000316 µM) of 109%, a viability, T/C (second compound 0.0316 µM, first compound 0.001 µM) of 101% and a viability, T/C [1] of 98.1%. For the same compound, the viability, T/C [2] was 91.4%, the viability, T/C [3] was 95.1% and the viability, T/C [4] was 100%. For the same compound, the viability, T/C (second compound 0.1 µM, first compound 0.000316 µM) was 109%, the viability, T/C (second compound 0.1 µM, first compound 0.001 µM) was 98.3% and the viability, T/C [5] was 101%. The viability, T/C [6] was 107%, the viability, T/C [7] was 98% and the viability, T/C [8] was 115%. It also gave a viability, T/C (second compound 0.316 µM, first compound 0.000316 µM) of 108%, a viability, T/C (second compound 0.316 µM, first compound 0.001 µM) of 97.1% and a viability, T/C [9] of 97.5%. The viability, T/C [10] was 98.5%, the viability, T/C [11] was 110% and the viability, T/C [12] was 105%. For the same compound, the viability, T/C (second compound 1 µM, first compound 0.000316 µM) was 104%, the viability, T/C (second compound 1 µM, first compound 0.001 µM) was 109% and the viability, T/C [13] was 121%. It also gave a viability, T/C [14] of 92%, a viability, T/C [15] of 112% and a viability, T/C [16] of 107%. It also gave a viability, T/C (second compound 3.16 µM, first compound 0.000316 µM) of 114%, a viability, T/C (second compound 3.16 µM, first compound 0.001 µM) of 110% and a viability, T/C [17] of 102%. The viability, T/C [18] was 108%, the viability, T/C [19] was 109% and the viability, T/C [20] was 110%. The viability, T/C (second compound 10 µM, first compound 0.000316 µM) was 168%, the viability, T/C (second compound 10 µM, first compound 0.001 µM) was 206% and the viability, T/C [21] was 176%. It also gave a viability, T/C [22] of 177%, a viability, T/C [23] of 174% and a viability, T/C [24] of 168%.
